Measured values as given in PubChem BioAssay (NCI).
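Method: 48-hour compound exposure of cells in 96-well plates, five concentrations, linear interpolation of endpoints. At the TGI there is no net growth.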

Tests used:
Experiment in all cases: NCI tumour cell line growth inhibition, 48 h
SK-MEL-28 melanoma = system: SK-MEL-28 melanoma
SNB-75 CNS = system: SNB-75 CNS
P388/ADR leukemia = system: P388/ADR leukemia
IGROV1 ovarian = system: IGROV1 ovarian
LOX IMVI melanoma = system: LOX IMVI melanoma
KM20L2 colon = system: KM20L2 colon
EKVX NSCLC = system: EKVX NSCLC
HOP-62 NSCLC = system: HOP-62 NSCLC
UO-31 renal = system: UO-31 renal
SF-539 CNS = system: SF-539 CNS
SK-MEL-2 melanoma = system: SK-MEL-2 melanoma
HOP-92 NSCLC = system: HOP-92 NSCLC
NCI-H226 lung = system: NCI-H226 lung
SN12K1 renal = system: SN12K1 renal
UACC-257 melanoma = system: UACC-257 melanoma
UACC-62 melanoma = system: UACC-62 melanoma
MCF7 breast = system: MCF7 breast
COLO 205 colon = system: COLO 205 colon
SK-OV-3 ovarian = system: SK-OV-3 ovarian
A498 renal = system: A498 renal
MOLT-4 leukemia = system: MOLT-4 leukemia
KM12 colon = system: KM12 colon
XF 498 CNS = system: XF 498 CNS
SF-268 CNS = system: SF-268 CNS
HL-60(TB) leukemia = system: HL-60(TB) leukemia
CCRF-CEM leukemia = system: CCRF-CEM leukemia
SK-MEL-5 melanoma = system: SK-MEL-5 melanoma
HCC-2998 colon = system: HCC-2998 colon
MALME-3M melanoma = system: MALME-3M melanoma
A549 NSCLC = system: A549 NSCLC
CAKI-1 renal = system: CAKI-1 renal
M19-MEL melanoma = system: M19-MEL melanoma
HT29 colon = system: HT29 colon
RPMI-8226 leukemia = system: RPMI-8226 leukemia
K-562 leukemia = system: K-562 leukemia
SW-620 colon = system: SW-620 colon
OVCAR-3 ovarian = system: OVCAR-3 ovarian
OVCAR-5 ovarian = system: OVCAR-5 ovarian
SF-295 CNS = system: SF-295 CNS
OVCAR-8 ovarian = system: OVCAR-8 ovarian
SNB-19 CNS = system: SNB-19 CNS
HCT-15 colon = system: HCT-15 colon
DMS 273 small cell lung = system: DMS 273 small cell lung
HCT-116 colon = system: HCT-116 colon
P388 leukemia = system: P388 leukemia
DLD-1 colon = system: DLD-1 colon
SN12C renal = system: SN12C renal
NCI/ADR-RES ovarian = system: NCI/ADR-RES ovarian
NCI-H460 lung = system: NCI-H460 lung
OVCAR-4 ovarian = system: OVCAR-4 ovarian
U251 CNS = system: U251 CNS
NCI-H23 lung = system: NCI-H23 lung
SNB-78 CNS = system: SNB-78 CNS
RXF 393 renal = system: RXF 393 renal

With `COc1ccc(OC)c(C#N)c1C#N` (tested in a mixture with another compound) the TGI (SK-MEL-28 melanoma) was over 100 µM, the TGI (SNB-75 CNS) was over 100 µM and the TGI (P388/ADR leukemia) was over 100 µM. For the same compound, the TGI (IGROV1 ovarian) was over 100 µM, the TGI (LOX IMVI melanoma) was over 100 µM and the TGI (KM20L2 colon) was over 100 µM. It also gave a TGI (EKVX NSCLC) of over 88 µM, a TGI (HOP-62 NSCLC) of over 100 µM and a TGI (UO-31 renal) of over 100 µM. It also gave a TGI (SF-539 CNS) of over 100 µM, a TGI (SK-MEL-2 melanoma) of over 100 µM and a TGI (HOP-92 NSCLC) of over 100 µM. The TGI (NCI-H226 lung) was over 100 µM, the TGI (SN12K1 renal) was over 100 µM and the TGI (UACC-257 melanoma) was over 100 µM. The TGI (UACC-62 melanoma) was over 100 µM, the TGI (MCF7 breast) was over 100 µM and the TGI (COLO 205 colon) was over 100 µM. The TGI (SK-OV-3 ovarian) was over 100 µM, the TGI (A498 renal) was over 100 µM and the TGI (MOLT-4 leukemia) was over 100 µM. It also gave a TGI (KM12 colon) of over 100 µM, a TGI (XF 498 CNS) of over 100 µM and a TGI (SF-268 CNS) of over 100 µM. For the same compound, the TGI (HL-60(TB) leukemia) was over 100 µM, the TGI (CCRF-CEM leukemia) was over 100 µM and the TGI (SK-MEL-5 melanoma) was over 100 µM. The TGI (HCC-2998 colon) was over 100 µM, the TGI (MALME-3M melanoma) was over 100 µM and the TGI (A549 NSCLC) was over 100 µM. The TGI (CAKI-1 renal) was over 100 µM, the TGI (M19-MEL melanoma) was over 100 µM and the TGI (HT29 colon) was over 100 µM. For the same compound, the TGI (RPMI-8226 leukemia) was over 100 µM, the TGI (K-562 leukemia) was over 100 µM and the TGI (SW-620 colon) was over 100 µM. For the same compound, the TGI (OVCAR-3 ovarian) was over 100 µM, the TGI (OVCAR-5 ovarian) was over 100 µM and the TGI (SF-295 CNS) was over 100 µM. It also gave a TGI (OVCAR-8 ovarian) of over 100 µM, a TGI (SNB-19 CNS) of over 100 µM and a TGI (HCT-15 colon) of over 100 µM. The TGI (DMS 273 small cell lung) was over 100 µM, the TGI (HCT-116 colon) was over 100 µM and the TGI (P388 leukemia) was over 100 µM. The TGI (DLD-1 colon) was over 100 µM, the TGI (SN12C renal) was over 100 µM and the TGI (NCI/ADR-RES ovarian) was over 100 µM. For the same compound, the TGI (NCI-H460 lung) was over 100 µM, the TGI (OVCAR-4 ovarian) was over 100 µM and the TGI (U251 CNS) was over 100 µM. It also gave a TGI (NCI-H23 lung) of over 100 µM, a TGI (SNB-78 CNS) of over 100 µM and a TGI (RXF 393 renal) of over 100 µM.
